Experimental data reported in US12077503B2, “Substituted cyclic amides and their use as herbicides” (FMC CORPORATION, priority 2015, dated 2024).

Assays:
Format in all cases: in vivo
[1] = test system: velvetleaf (Abutilon theophrasti); test: Test G Post-Emergence Protocol; settings: Abutilon theophrasti, post-emergence, 312 h; for pest or weed control at 15.625 g/ha: 15.625 g ai/ha, evaluated after 13 days (100=total damage to plant; 0=no damage to plant), read-out: Velvetleaf damage rating; for pest or weed control at 62.5 g/ha: 62.5 g ai/ha, read-out: Velvetleaf damage rating (100=total damage to plant; 0=no damage to plant); for pest or weed control at 62.5 g/ha / pest or weed control at 250 g/ha: evaluated after 13 days; for pest or weed control at 250 g/ha: 250 g ai/ha, read-out: damage to plant, Velvetleaf (100=total damage to plant; 0=no damage to plant)
Procedure, shortened: (§1)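 A glasshouse post-emergence test: 8-day-old plants sprayed at 15.625, 62.5 or 250 g/ha, then grown at 24/16 °C day/night with 14 h light and 65% humidity. Damage rated 13 days later, 0–100.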

[2] = test system: redroot pigweed (Amaranthus retroflexus); test: Test G Post-Emergence Protocol; settings: Amaranthus retroflexus, post-emergence, 312 h; for pest or weed control at 15.625 g/ha: 15.625 g ai/ha, evaluated after 13 days (100=total damage to plant; 0=no damage to plant), read-out: Pigweed, Redroot damage rating; for pest or weed control at 62.5 g/ha: 62.5 g ai/ha, read-out: Pigweed, Redroot damage rating (100=total damage to plant; 0=no damage to plant); for pest or weed control at 62.5 g/ha / pest or weed control at 250 g/ha: evaluated after 13 days; for pest or weed control at 250 g/ha: 250 g ai/ha, read-out: damage to plant, Pigweed, Redroot (100=total damage to plant; 0=no damage to plant)
Procedure, shortened: as §1

[3] = test system: giant foxtail (Setaria faberi); test: Test G Post-Emergence Protocol; settings: Setaria faberi, post-emergence, 312 h; for pest or weed control at 15.625 g/ha: 15.625 g ai/ha, evaluated after 13 days (100=total damage to plant; 0=no damage to plant), read-out: Foxtail, Giant damage rating; for pest or weed control at 62.5 g/ha: 62.5 g ai/ha, read-out: Foxtail, Giant damage rating (100=total damage to plant; 0=no damage to plant); for pest or weed control at 62.5 g/ha / pest or weed control at 250 g/ha: evaluated after 13 days; for pest or weed control at 250 g/ha: 250 g ai/ha, read-out: damage to plant, Foxtail, Giant (100=total damage to plant; 0=no damage to plant)
Procedure, shortened: as §1

[4] = test system: barnyardgrass (Echinochloa crus-galli); test: Test G Post-Emergence Protocol; settings: Echinochloa crus-galli, post-emergence, 312 h; for pest or weed control at 15.625 g/ha: 15.625 g ai/ha, evaluated after 13 days (100=total damage to plant; 0=no damage to plant), read-out: Barnyardgrass damage rating; for pest or weed control at 62.5 g/ha: 62.5 g ai/ha, read-out: Barnyardgrass damage rating (100=total damage to plant; 0=no damage to plant); for pest or weed control at 62.5 g/ha / pest or weed control at 250 g/ha: evaluated after 13 days; for pest or weed control at 250 g/ha: 250 g ai/ha, read-out: damage to plant, Barnyardgrass (100=total damage to plant; 0=no damage to plant)
Procedure, shortened: as §1

[5] = test system: ivy-leaved morning glory (Ipomoea hederacea); test: Test G Post-Emergence Protocol; settings: Ipomoea, post-emergence, 312 h; for pest or weed control at 15.625 g/ha: 15.625 g ai/ha, evaluated after 13 days (100=total damage to plant; 0=no damage to plant), read-out: Morningglory, Ivy-leaved damage rating; for pest or weed control at 62.5 g/ha: 62.5 g ai/ha, read-out: Morningglory, Ivy-leaved damage rating (100=total damage to plant; 0=no damage to plant); for pest or weed control at 62.5 g/ha / pest or weed control at 250 g/ha: evaluated after 13 days; for pest or weed control at 250 g/ha: 250 g ai/ha, read-out: damage to plant, Morningglory, Ivy-leaved (100=total damage to plant; 0=no damage to plant)
Procedure, shortened: as §1

corn (Zea mays) [6] = test: Test G Post-Emergence Protocol; settings: Zea mays, post-emergence, 312 h; for plant injury at 15.625 g/ha: 15.625 g ai/ha, evaluated after 13 days (100=total damage to plant; 0=no damage to plant), read-out: Corn damage rating; for plant injury at 62.5 g/ha: 62.5 g ai/ha, read-out: Corn damage rating (100=total damage to plant; 0=no damage to plant); for plant injury at 62.5 g/ha / plant injury at 250 g/ha: evaluated after 13 days; for plant injury at 250 g/ha: 250 g ai/ha, read-out: damage to plant, Corn (100=total damage to plant; 0=no damage to plant)
Procedure, shortened: as §1

[7] = test system: velvetleaf (Abutilon theophrasti); test: Test G Pre-Emergence Protocol; settings: Abutilon theophrasti, pre-emergence, 312 h, evaluated after 13 days; for pest or weed control at 15.625 g/ha: 15.625 g ai/ha; for pest or weed control at 15.625 g/ha / pest or weed control at 250 g/ha: read-out: Velvetleaf damage rating (100=total damage to plant; 0=no damage to plant); for pest or weed control at 62.5 g/ha: 62.5 g ai/ha, 100=total damage to plant, 0=no damage to plant, read-out: plant damage rating, Velvetleaf; for pest or weed control at 250 g/ha: 250 g ai/ha
Procedure, shortened: (§2)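 Spraying took place one day after sowing, at 15.625, 62.5 or 250 g/ha, using an acetone/water (50:50) spray solution containing 0.5% Tween 20. Plants were kept under glasshouse conditions (24/16 °C, 14 h light, 65% humidity, watered twice daily), and injury was rated 0–100 at day 13.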

[8] = test system: redroot pigweed (Amaranthus retroflexus); test: Test G Pre-Emergence Protocol; settings: Amaranthus retroflexus, pre-emergence, 312 h, evaluated after 13 days; for pest or weed control at 15.625 g/ha: 15.625 g ai/ha; for pest or weed control at 15.625 g/ha / pest or weed control at 250 g/ha: read-out: Pigweed, Redroot damage rating (100=total damage to plant; 0=no damage to plant); for pest or weed control at 62.5 g/ha: 62.5 g ai/ha, 100=total damage to plant, 0=no damage to plant, read-out: plant damage rating, Pigweed, Redroot; for pest or weed control at 250 g/ha: 250 g ai/ha
Procedure, shortened: as §2

[9] = test system: giant foxtail (Setaria faberi); test: Test G Pre-Emergence Protocol; settings: Setaria faberi, pre-emergence, 312 h, evaluated after 13 days; for pest or weed control at 15.625 g/ha: 15.625 g ai/ha; for pest or weed control at 15.625 g/ha / pest or weed control at 250 g/ha: read-out: Foxtail, Giant damage rating (100=total damage to plant; 0=no damage to plant); for pest or weed control at 62.5 g/ha: 62.5 g ai/ha, 100=total damage to plant, 0=no damage to plant, read-out: plant damage rating, Foxtail, Giant; for pest or weed control at 250 g/ha: 250 g ai/ha
Procedure, shortened: as §2

[10] = test system: barnyardgrass (Echinochloa crus-galli); test: Test G Pre-Emergence Protocol; settings: Echinochloa crus-galli, pre-emergence, 312 h, evaluated after 13 days; for pest or weed control at 15.625 g/ha: 15.625 g ai/ha, read-out: Barnyard grass damage rating (100=total damage to plant; 0=no damage to plant); for pest or weed control at 62.5 g/ha: 62.5 g ai/ha, 100=total damage to plant, 0=no damage to plant, read-out: plant damage rating, Barnyardgrass; for pest or weed control at 250 g/ha: 250 g ai/ha, read-out: Barnyardgrass damage rating (100=total damage to plant; 0=no damage to plant)
Procedure, shortened: as §2

[11] = test system: ivy-leaved morning glory (Ipomoea hederacea); test: Test G Pre-Emergence Protocol; settings: Ipomoea, pre-emergence, 312 h, evaluated after 13 days; for pest or weed control at 15.625 g/ha: 15.625 g ai/ha, read-out: Morning-glory, Ivy-leaved damage rating (100=total damage to plant; 0=no damage to plant); for pest or weed control at 62.5 g/ha: 62.5 g ai/ha, 100=total damage to plant, 0=no damage to plant, read-out: plant damage rating, Morningglory, Ivy-leaved; for pest or weed control at 250 g/ha: 250 g ai/ha, read-out: Morningglory, Ivy-leaved damage rating (100=total damage to plant; 0=no damage to plant)
Procedure, shortened: as §2

corn (Zea mays) [12] = test: Test G Pre-Emergence Protocol; settings: Zea mays, pre-emergence, 312 h, evaluated after 13 days; for plant injury at 15.625 g/ha: 15.625 g ai/ha; for plant injury at 15.625 g/ha / plant injury at 250 g/ha: read-out: Corn damage rating (100=total damage to plant; 0=no damage to plant); for plant injury at 62.5 g/ha: 62.5 g ai/ha, 100=total damage to plant, 0=no damage to plant, read-out: plant damage rating, Corn; for plant injury at 250 g/ha: 250 g ai/ha
Procedure, shortened: as §2

Row | SMILES | pest or weed control at 15.625 g/ha [1] | pest or weed control at 62.5 g/ha [1] | pest or weed control at 250 g/ha [1] | pest or weed control at 15.625 g/ha [2] | pest or weed control at 62.5 g/ha [2] | pest or weed control at 250 g/ha [2] | pest or weed control at 15.625 g/ha [3] | pest or weed control at 62.5 g/ha [3] | pest or weed control at 250 g/ha [3] | pest or weed control at 15.625 g/ha [4] | pest or weed control at 62.5 g/ha [4] | pest or weed control at 250 g/ha [4] | pest or weed control at 15.625 g/ha [5] | pest or weed control at 62.5 g/ha [5] | pest or weed control at 250 g/ha [5] | plant injury at 15.625 g/ha (corn (Zea mays) [6]) | plant injury at 62.5 g/ha (corn (Zea mays) [6]) | plant injury at 250 g/ha (corn (Zea mays) [6]) | pest or weed control at 15.625 g/ha [7] | pest or weed control at 62.5 g/ha [7] | other results
1 | CN1C[C@@H](c2ccc(C(F)(F)F)cc2)[C@H](C(=O)Nc2cnnc(Cl)c2Cl)C1=O (racemic) [Compound 1567] | 0% | 0% | 0% | 0% | 0% | 0% | 0% | 0% | 0% | 0% | 0% | 10% | 0% | 0% | 0% | 0% | 0% | 0% | 0% | 0% | pest or weed control at 250 g/ha [7]: 0%; pest or weed control at 15.625 g/ha [8]: 0%; pest or weed control at 62.5 g/ha [8]: 0%; pest or weed control at 250 g/ha [8]: 0%; pest or weed control at 15.625 g/ha [9]: 0%; pest or weed control at 62.5 g/ha [9]: 0%; pest or weed control at 250 g/ha [9]: 0%; pest or weed control at 15.625 g/ha [10]: 0%; pest or weed control at 62.5 g/ha [10]: 0%; pest or weed control at 250 g/ha [10]: 0%; pest or weed control at 15.625 g/ha [11]: 0%; pest or weed control at 62.5 g/ha [11]: 0%; pest or weed control at 250 g/ha [11]: 0%; plant injury at 15.625 g/ha (corn (Zea mays) [12]): 0%; plant injury at 62.5 g/ha (corn (Zea mays) [12]): 0%; plant injury at 250 g/ha (corn (Zea mays) [12]): 0%
2 | CN1C[C@@H](c2ccc(C(F)(F)F)cc2)[C@H](C(=O)Nc2ncccn2)C1=O (racemic) [Compound 1564] | 0% | 0% | 0% | 0% | 0% | 10% | 0% | 0% | 10% | 0% | 0% | 20% | 0% | 0% | 0% | 0% | 0% | 10% | 0% | 0% | pest or weed control at 250 g/ha [7]: 0%; pest or weed control at 15.625 g/ha [8]: 0%; pest or weed control at 62.5 g/ha [8]: 0%; pest or weed control at 250 g/ha [8]: 0%; pest or weed control at 15.625 g/ha [9]: 0%; pest or weed control at 62.5 g/ha [9]: 0%; pest or weed control at 250 g/ha [9]: 0%; pest or weed control at 15.625 g/ha [10]: 0%; pest or weed control at 62.5 g/ha [10]: 0%; pest or weed control at 250 g/ha [10]: 0%; pest or weed control at 15.625 g/ha [11]: 0%; pest or weed control at 62.5 g/ha [11]: 0%; pest or weed control at 250 g/ha [11]: 0%; plant injury at 15.625 g/ha (corn (Zea mays) [12]): 0%; plant injury at 62.5 g/ha (corn (Zea mays) [12]): 0%; plant injury at 250 g/ha (corn (Zea mays) [12]): 10%
